The results in this text go back to PMC12655757, “Design and Synthesis of Novel Candidate CK1δ Proteolysis Targeting Chimeras (PROTACs)” (Molecules, 2025).

Assay [1] addresses T1, CK1δ (Homo sapiens, UniProt P48730).
T1 construct: gene CSNK1D
The experiment in a line: in vitro radiometric kinase assay ([…]-ATP, CK1 peptide substrate); CRBN-dependent CK1δ degradation in cells. It counts as biochemical.

Assay [2] addresses T1, CK1δ. The experiment in a line: in vitro radiometric kinase assay ([…]-ATP, CK1 peptide substrate). It counts as biochemical.

T1 sequence (P48730 whole entry): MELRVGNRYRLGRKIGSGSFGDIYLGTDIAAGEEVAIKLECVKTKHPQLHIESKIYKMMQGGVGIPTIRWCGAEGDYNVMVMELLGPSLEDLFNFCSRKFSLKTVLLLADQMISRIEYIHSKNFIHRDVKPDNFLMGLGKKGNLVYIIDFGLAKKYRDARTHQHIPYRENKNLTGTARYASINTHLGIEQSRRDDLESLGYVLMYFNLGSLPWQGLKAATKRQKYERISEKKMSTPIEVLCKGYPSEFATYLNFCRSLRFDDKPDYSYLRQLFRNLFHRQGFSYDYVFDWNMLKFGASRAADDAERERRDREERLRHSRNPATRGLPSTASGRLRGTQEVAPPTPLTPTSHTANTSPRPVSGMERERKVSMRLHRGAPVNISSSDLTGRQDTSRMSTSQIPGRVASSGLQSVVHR

In the case of `O=C1CCC(N2C(=O)c3cccc(NCCCCCC(=O)Nc4ccc(Cn5c(SCC(=O)Nc6nc7ccc(C(F)(F)F)cc7s6)nccc5=O)cc4)c3C2=O)C(=O)N1` (stereo not shown) [P1d], the IC50 (as a rule, the midpoint of a concentration-inhibition curve) at CK1δ [1] worked out at 2160 nM.
Compound `O=C1CCC(N2C(=O)c3ccc(OCCCOCCC(=O)Nc4ccc(Cn5c(SCC(=O)Nc6nc7ccc(C(F)(F)F)cc7s6)nccc5=O)cc4)cc3C2=O)C(=O)N1` (stereo not shown) [P4d] yielded an IC50 against CK1δ [2] of about 2200 nM.
The same measure, in the same setting: to `Nc1ccc(Cn2c(SCC(=O)Nc3nc4ccc(C(F)(F)F)cc4s3)nccc2=O)cc1` [I9] belongs 3430 nM.
Still for that read-out and setting: the same measure for `O=C1CCC(N2C(=O)c3cccc(OCCCOCCC(=O)Nc4ccc(Cn5c(SCC(=O)Nc6nc7ccc(C(F)(F)F)cc7s6)nccc5=O)cc4)c3C2=O)C(=O)N1` (stereo not shown) [P3d]: 1960 nM.
